Drawing on patent publication US20230019491A1, “PYRIMIDINE TBK/IKKe INHIBITOR COMPOUNDS AND USES THEREOF” (Merck Patent GmbH, priority 2017, published 2023), this text covers IC50 for 17 compounds.

The target in one assay is T1, TBK1 (Homo sapiens, UniProt Q9UHD2).
T1 sequence (Q9UHD2 1-729): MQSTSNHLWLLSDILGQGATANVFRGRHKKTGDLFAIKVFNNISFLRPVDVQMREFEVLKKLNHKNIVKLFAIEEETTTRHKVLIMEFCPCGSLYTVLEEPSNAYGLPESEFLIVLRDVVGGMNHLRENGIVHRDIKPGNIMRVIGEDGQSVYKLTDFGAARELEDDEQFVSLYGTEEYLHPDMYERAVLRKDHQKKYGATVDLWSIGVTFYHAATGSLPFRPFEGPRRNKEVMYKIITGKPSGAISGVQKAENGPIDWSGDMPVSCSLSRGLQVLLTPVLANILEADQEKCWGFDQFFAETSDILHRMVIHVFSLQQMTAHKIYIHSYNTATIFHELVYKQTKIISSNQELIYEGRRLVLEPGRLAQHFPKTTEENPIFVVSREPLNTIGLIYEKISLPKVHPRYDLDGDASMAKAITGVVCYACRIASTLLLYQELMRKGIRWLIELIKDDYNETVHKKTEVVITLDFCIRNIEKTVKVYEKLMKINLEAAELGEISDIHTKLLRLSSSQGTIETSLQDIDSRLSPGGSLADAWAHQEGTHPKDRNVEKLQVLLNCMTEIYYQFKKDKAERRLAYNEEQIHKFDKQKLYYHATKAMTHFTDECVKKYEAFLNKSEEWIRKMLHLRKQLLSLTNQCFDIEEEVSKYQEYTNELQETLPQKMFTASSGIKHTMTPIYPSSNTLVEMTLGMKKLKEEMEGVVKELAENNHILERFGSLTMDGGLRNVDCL
The assay can be described thus: TBK biochemical assay. As to conditions: 10 point 1:4 dose response, 30 uM top concentration, 90 min at 25° C., LabChip EZ Reader II; read-out: TBK1_IC50. Summed up: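 Substrate and product were separated and quantified by microfluidic mobility-shift read (LabChip). 10 uM staurosporine served as the full-inhibition control, and the reference compound was tested from 1 uM final.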

For another assay, the target named is T2, IKKε (Homo sapiens, UniProt Q14164).
T2 sequence (Q14164 1-716): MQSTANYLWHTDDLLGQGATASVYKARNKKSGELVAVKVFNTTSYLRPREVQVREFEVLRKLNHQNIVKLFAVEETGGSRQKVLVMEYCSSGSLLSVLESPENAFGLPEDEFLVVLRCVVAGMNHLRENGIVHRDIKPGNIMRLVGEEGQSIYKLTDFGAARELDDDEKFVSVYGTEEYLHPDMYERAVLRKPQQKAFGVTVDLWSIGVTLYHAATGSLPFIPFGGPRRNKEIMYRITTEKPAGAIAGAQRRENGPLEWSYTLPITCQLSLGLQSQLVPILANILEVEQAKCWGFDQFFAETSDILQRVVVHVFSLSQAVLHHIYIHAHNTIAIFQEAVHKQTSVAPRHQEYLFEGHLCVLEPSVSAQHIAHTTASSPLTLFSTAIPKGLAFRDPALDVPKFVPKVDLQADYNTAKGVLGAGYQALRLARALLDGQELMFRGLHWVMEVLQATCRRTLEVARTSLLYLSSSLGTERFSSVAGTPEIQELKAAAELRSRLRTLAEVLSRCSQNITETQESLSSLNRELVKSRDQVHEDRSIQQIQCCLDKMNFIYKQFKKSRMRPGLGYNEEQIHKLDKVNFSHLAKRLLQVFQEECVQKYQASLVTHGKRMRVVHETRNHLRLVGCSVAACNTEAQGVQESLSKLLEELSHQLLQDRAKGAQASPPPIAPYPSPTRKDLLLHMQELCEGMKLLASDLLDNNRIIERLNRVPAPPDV
Description: IKKε biochemical assay. As to conditions: 10 point 1:4 dose response, 30 uM top concentration, 90 min at 25° C., LabChip EZ Reader II; read-out: IKKε_IC50. Summed up:
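Compounds in 1% DMSO final were incubated with IKKε enzyme and substrate at 25° C. for 90 min, then stopped. Substrate and product peaks were resolved by LabChip EZ Reader II mobility-shift read-out. Staurosporine at 10 uM final served as the full-inhibition control.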

For the compound `COc1nc(Nc2nccc(-c3ccc(OC4CCN(C(=O)[C@H](C)O)CC4(F)F)c(C#N)c3)n2)ccc1N1CCN(C2COC2)[C@@H](C)C1` (stereo partly drawn) [Example 127, 2-[3,3-Difluoro-1-((S)-2-hydroxy-propionyl)-piperidin-4-yloxy]-5-{2-[6-methoxy-5-((S)-3-methyl-4-oxetan-3-yl-piperazin-1-yl)-pyridin-2-ylamino]-pyrimidin-4-yl}-benzonitrile], the IC50 at TBK1 and on IKKε was less than 100 nM throughout.

Consider `C[C@H](O)C(=O)N1CC[C@H](Oc2ccc(-c3nc(Nc4ccc(N5CCN(C6COC6)CC5)cc4)ncc3F)cc2C#N)[C@H](F)C1` [Example 296, 2-({3-fluoro-1-[(2S)-2-hydroxypropanoyl]piperidin-4-yl}oxy)-5-[5-fluoro-2-({4-[4-(oxetan-3-yl)piperazin-1-yl]phenyl}amino)pyrimidin-4-yl]benzonitrile], for which the IC50 on TBK1 and at IKKε was less than 100 nM each time.

As to `COc1nc(Nc2nccc(-c3ccc(OC4CCNCC4)c(C#N)c3)n2)ccc1N1CCN(C)CC1` [Example 89, 5-(2-[[6-methoxy-5-(4-methylpiperazin-1-yl)pyridin-2-yl]amino]pyrimidin-4-yl)-2-(piperidin-4-yloxy)benzonitrile], the IC50 at TBK1 and at IKKε was less than 100 nM in each case.

Turning to `COc1nc(Nc2nccc(-c3ccc(OC4CCOCC4)c(C#N)c3)n2)ccc1C(=O)N1CCNC(=O)C1` [Example 6, 5-{2-[6-methoxy-5-(3-oxo-piperazine-1-carbonyl)-pyridin-2-ylamino]-pyrimidin-4-yl}-2-(tetrahydro-pyran-4-yloxy)-benzonitrile], the IC50 on TBK1 and on IKKε was less than 100 nM throughout.

Turning to `COc1nc(Nc2ncc(F)c(-c3ccc(OC4CCN(C(=O)C(C)O)CC4(F)F)c(C#N)c3)n2)ccc1N1CCN(C2COC2)CC1` (stereo not shown) [Example 291, 2-{[33-difluoro-1-(2-hydroxypropanoyl)piperidin-4-yl]oxy}-5-[5-fluoro-2-({6-methoxy-5-[4-(oxetan-3-yl)piperazin-1-yl]pyridin-2-yl}amino)pyrimidin-4-yl]], the IC50 on TBK1 and on IKKε was less than 100 nM in each case.

With `C[C@@H](O)C(=O)N1CCC(Oc2ccc(-c3ccnc(Nc4ccccn4)n3)cc2C#N)C(F)(F)C1` (stereo partly drawn) [Example 221, 2-[3,3-Difluoro-1-((R)-2-hydroxy-propionyl)-piperidin-4-yloxy]-5-[2-(pyridin-2-ylamino)-pyrimidin-4-yl]-benzonitrile], the IC50 at TBK1 and at IKKε was 100 to 1000 nM in each case.

Turning to `COc1nc(Nc2nccc(-c3ccc(O[C@H]4CCN(C(=O)[C@H](C)O)CC4(F)F)c(C#N)c3)n2)ccc1N1CCN(C2COC2)[C@@H](C)C1` [Example 247, 2 2-[(S)-3,3-Difluoro-1-((S)-2-hydroxy-propionyl)-piperidin-4-yloxy]-5-{2-[6-methoxy-5-((S)-3-methyl-4-oxetan-3-yl-piperazin-1-yl)-pyridin-2-ylamino]-pyrimidin-4-yl}-benzonitrile], the IC50 on TBK1 and at IKKε was less than 100 nM each time.

For the compound `COc1nc(Nc2nccc(-c3ccc(O[C@@H]4CCNC[C@@H]4F)c(C#N)c3)n2)ccc1C1CCN(C2COC2)CC1` [Example 235, 2-((3S,4R)-3-Fluoro-piperidin-4-yloxy)-5-[2-(2-methoxy-1′-oxetan-3-yl-1′,2′,3′,4′,5′,6′-hexahydro-[3,4′]bipyridinyl-6-ylamino)-pyrimidin-4-yl]-benzonitrile], the IC50 on TBK1 and at IKKε was 100 to 1000 nM throughout.

Consider `COc1nc(Nc2nccc(-c3ccc(O[C@@H]4CCN(C(=O)[C@@H](C)O)C[C@@H]4F)c(C#N)c3)n2)ccc1N1CCN(C2COC2)CC1` [Example 117, 2-[(3S,4R)-3-Fluoro-1-((R)-2-hydroxy-propionyl)-piperidin-4-yloxy]-5-{2-[6-methoxy-5-(4-oxetan-3-yl-piperazin-1-yl)-pyridin-2-ylamino]-pyrimidin-4-yl}-benzonitrile], for which the IC50 at TBK1 and at IKKε was less than 100 nM throughout.

For the compound `COc1nc(Nc2nccc(-c3ccc(OC4CCN(C(=O)[C@@H](O)CO)CC4C)c(C#N)c3)n2)ccc1N1CCN(C2COC2)CC1` (stereo partly drawn) [Example 272, 2-[1-((S)-2,3-Dihydroxy-propionyl)-3-methyl-piperidin-4-yloxy]-5-{2-[6-methoxy-5-(4-oxetan-3-yl-piperazin-1-yl)-pyridin-2-ylamino]-pyrimidin-4-yl}-benzonitrile], the IC50 at TBK1 and on IKKε was less than 100 nM throughout.

`COc1nc(Nc2nccc(-c3ccc(OC4CCN(C(=O)CO)CC4(F)F)c(C#N)c3)n2)ccc1N1CCN(C)CC1` (stereo not shown) [Example 99, 2-[[3,3-difluoro-1-(2-hydroxyacetyl)piperidin-4-yl]oxy]-5-(2-[[6-methoxy-5-(4-methylpiperazin-1-yl)pyridin-2-yl]amino]pyrimidin-4-yl)benzonitrile]: the IC50 on TBK1 and at IKKε was less than 100 nM each time.

With `C[C@H](O)C(=O)N1CCC(Oc2ccc(-c3ccnc(Nc4cccnc4)n3)cc2C#N)C(F)(F)C1` (stereo partly shown) [Example 205], the IC50 at TBK1 and on IKKε was less than 100 nM in each case.

As for `COc1nc(Nc2nccc(-c3ccc(OC4CCNCC4(F)F)c(C#N)c3)n2)ccc1N1CCN(C)CC1` (stereo not shown) [Example 97, 2-[(3,3-difluoropiperidin-4-yl)oxy]-5-(2-[[6-methoxy-5-(4-methylpiperazin-1-yl)pyridin-2-yl]amino]pyrimidin-4-yl)benzonitrile], the IC50 on TBK1 and on IKKε was less than 100 nM in each case.

As for `COc1nc(Nc2nccc(-c3ccc(OC4CCN(C(=O)[C@@H](C)O)CC4(F)F)c(C#N)c3)n2)ccc1N1CCN(C)[C@H](C)C1` (stereo partly drawn) [Example 103, 2-[3,3-Difluoro-1-((R)-2-hydroxy-propionyl)-piperidin-4-yloxy]-5-{2-[5-((R)-3,4-dimethyl-piperazin-1-yl)-6-methoxy-pyridin-2-ylamino]-pyrimidin-4-yl}-benzonitrile], the IC50 at TBK1 and at IKKε was less than 100 nM each time.

`COc1nc(Nc2nccc(-c3ccc(OC4CCN(C(=O)[C@H](C)O)CC4(F)F)c(C#N)n3)n2)ccc1N1CCN(C2COC2)CC1` (stereo partly drawn) [Example 304, 3-([3,3-difluoro-1-[(2S)-2-hydroxypropanoyl]piperidin-4-yl]oxy)-6-[2-([6-methoxy-5-[4-(oxetan-3-yl)piperazin-1-yl]pyridin-2-yl]amino)pyrimidin-4-yl]pyridine-2-carbonitrile]: the IC50 on TBK1 and on IKKε was less than 100 nM in each case.

Consider `COc1cc(Nc2nccc(-c3ccc(OC4CCN(C(=O)[C@H](C)O)CC4(F)F)c(C#N)c3)n2)ccc1N1CCN(C2COC2)CC1` (stereo partly drawn) [Example 217, 2-([3,3-difluoro-1-[(2S)-2-hydroxypropanoyl]piperidin-4-yl]oxy)-5-[2-([3-methoxy-4-[4-(oxetan-3-yl)piperazin-1-yl]phenyl]amino)pyrimidin-4-yl]benzonitrile], for which the IC50 at TBK1 and at IKKε was less than 100 nM each time.

As to `C[C@H](O)C(=O)N1CCC(Oc2ccc(-c3ccnc(Nc4ccccc4)n3)cc2C#N)C(F)(F)C1` (stereo partly drawn) [Example 209, 2-[3,3-Difluoro-1-((S)-2-hydroxy-propionyl)-piperidin-4-yloxy]-5-(2-phenylamino-pyrimidin-4-yl)-benzonitrile], the IC50 on TBK1 and at IKKε was less than 100 nM each time.
